The text below walks through data of patent US11019821B2, “Fused bicyclic heterocycle derivatives as pesticides” (Bayer Aktiengesellschaft, priority 2018, dated 2021).

Molecules are shown by their SMILES.

Data set [1] can be described thus: log P by HPLC on reversed-phase column, acidic range. In kind it is physicochemical. The settings on record: reversed-phase HPLC column (C 18); pH 2.7, 0.1% aqueous formic acid and acetonitrile, C 18 column, 55° C.; read-out: log P (HCOOH). How it is done:
The log P values are measured according to EEC Directive 79/831 Annex V.A8 by HPLC (high-performance lilog Puid chromatography) on a reversed-phase column (C 18). Temperature: 55° C.
The LC-MS determination in the acidic range is effected at pH 2.7 with 0.1% alog Pueous formic acid and acetonitrile (containing 0.1% formic acid) as eluents; linear gradient from 10% acetonitrile to 95% acetonitrile. Called log P (HCOOH) in the table.
Calibration is effected using unbranched alkan-2-ones (having 3 to 16 carbon atoms) with known log P values (log P values determined on the basis of the retention times by linear interpolation between two successive alkanones).

The test system of data set [2] is Spodoptera frugiperda. The data set is described as follows: Spodoptera frugiperda spray test. The data set is classed as in vivo. The conditions noted are these: application rate 100 g/ha, after 7 days, maize leaf discs. How it is done:
(§1) To produce a suitable active ingredient formulation, 1 part by weight of active ingredient is dissolved with the specified parts by weight of solvent and made up to the desired concentration with water containing an emulsifier concentration of 1000 ppm. To produce further test concentrations, the formulation is diluted with emulsifier-containing water.
Leaf discs of maize (Zea mays) are sprayed with an active ingredient formulation of the desired concentration and, after drying, populated with caterpillars of the armyworm (Spodoptera frugiperda).
After 7 days, the efficacy in % is determined. 100% means that all the caterpillars have been killed; 0% means that no caterpillar has been killed.

For data set [3], the system named is Myzus persicae. The data set is described as follows: Myzus persicae oral test. In kind it is in vivo. The settings on record: 120 h, application rate 4 ppm, after 5 days, read-out: efficacy (aphids killed). On the procedure:
To produce a suitable active ingredient formulation, 1 part by weight of active ingredient is dissolved with the stated parts by weight of solvent and made up to the desired concentration with water.
50 μl of the active ingredient preparation are transferred into microtitre plates and made up to a final volume of 200 μl with 150 μl of IPL41 insect medium (33%+15% sugar). Subselog Puently, the plates are sealed with parafilm, which a mixed population of green peach aphids (Myzus persicae) within a second microtitre plate is able to puncture and imbibe the solution.
(§2) After 5 days, the efficacy in % is determined. 100% means that all the aphids have been killed; 0% means that no aphids have been killed.

Data set [4] relates to Diabrotica balteata. The data set is described as follows: Diabrotica balteata spray test. The conditions noted are these: application rate 160 μg/cavity, after 7 days, beetle larvae on germinated wheat grains. The data set is classed as in vivo. On the procedure:
To produce an appropriate active ingredient formulation, 1 part by weight of active ingredient is dissolved with the given parts by weight of solvent and made up with water containing an emulsifier concentration of 1000 ppm until the desired concentration is attained. Further test concentrations are produced by diluting with emulsifier-containing water.
Pre-swollen wheat grains (Triticum aestivum) are incubated in a multiwell plate filled with agar and a little water for one day (5 seed grains per cavity). The germinated wheat grains are sprayed with an active ingredient formulation of the desired concentration. Subselog Puently, each cavity is infected with 10-20 Diabrotica balteata beetle larvae.
After 7 days, efficacy in % is determined. 100% means that all wheat plants have grown as in the untreated, uninfected control; 0% means that no wheat plant has grown.

Data set [5] deals with Myzus persicae. Briefly: Myzus persicae spray test. The data set is classed as in vivo. The conditions noted are these: foliar, 120 h, application rate 100 g/ha, after 5 days, Chinese cabbage leaf discs, read-out: efficacy (aphids killed). On the procedure: as §1
Discs of Chinese cabbage leaves (Brassica pekinensis) infested by all stages of the green peach aphid (Myzus persicae) are sprayed with an active ingredient formulation of the desired concentration.
as §2

Data set [6] deals with Tetranychus urticae. The data set is described as follows: Tetranychus urticae spray test, OP-resistant. In kind it is in vivo. The settings on record: application rate 100 g/ha, after 6 days, bean leaf discs. On the procedure:
as §1
Discs of bean leaves (Phaseolus vulgaris) infested with all stages of the greenhouse red spider mite (Tetranychus urticae) are sprayed with an active ingredient formulation of the desired concentration.
After 6 days, the efficacy in % is determined. 100% means that all the spider mites have been killed; 0% means that no spider mites have been killed.

Data set [7] relates to Phaedon cochleariae. The data set is described as follows: Phaedon cochleariae spray test. The data set is classed as in vivo. The conditions noted are these: application rate 100 g/ha, after 7 days, Chinese cabbage leaf discs. How it is done: as §1
Discs of Chinese cabbage leaves (Brassica pekinensis) are sprayed with an active ingredient formulation of the desired concentration and, after drying, populated with larvae of the mustard beetle (Phaedon cochleariae).
After 7 days, the efficacy in % is determined. 100% means that all the beetle larvae have been killed; 0% means that no beetle larvae have been killed.

Data set [8] has as its system Ctenocephalides felis. The data set is described as follows: Ctenocephalides felis oral test. The data set is classed as in vivo. The conditions noted are these: application rate 100 ppm in citrated cattle blood, after 2 days, adult cat fleas. How it is done: (§3) Solvent: dimethyl sulfoxide
To produce a suitable active ingredient formulation, 10 mg of active ingredient are mixed with 0.5 ml of dimethyl sulfoxide. Dilution with citrated cattle blood gives the desired concentration.
About 20 unfed adult cat fleas (Ctenocephalides felis) are placed into a chamber which is closed at the top and bottom with gauze. A metal cylinder whose bottom end is closed with parafilm is placed onto the chamber. The cylinder contains the blood/active ingredient formulation, which can be imbibed by the fleas through the parafilm membrane.
After 2 days, the kill in % is determined. 100% means that all of the fleas have been killed; 0% means that none of the fleas have been killed.

Data set [9] concerns Boophilus microplus. The data set is described as follows: Boophilus microplus injection test. The data set is classed as in vivo. The conditions noted are these: application rate 20 μg/animal, assessed after 7 days, engorged adult female cattle ticks. How it is done: as §3
To produce a suitable active ingredient formulation, 10 mg of active ingredient are mixed with 0.5 ml of solvent and the concentrate is diluted to the desired concentration with solvent.
1 μl of the active ingredient solution is injected into the abdomen of 5 engorged adult female cattle ticks (Boophilus microplus). The animals are transferred into dishes and kept in a climate-controlled room.
Efficacy is assessed after 7 days by laying of fertile eggs. Eggs which are not visibly fertile are stored in a climate-controlled cabinet until the larvae hatch after about 42 days. An efficacy of 100% means that none of the ticks has laid any fertile eggs; 0% means that all the eggs are fertile.

For `O=C(O)c1nn2c(c1Br)CC(C(F)(F)F)CC2` (centres unmarked) [3-Bromo-5-(trifluoromethyl)-4,5,6,7-tetrahydropyrazolo[1,5-a]pyridine-2-carboxylic acid], in data set [1], the chromatographic logP was 1.75.

As for `CCS(=O)(=O)c1c(-c2nc3cc(C(F)(F)C(F)(F)F)cnc3n2C)nn2c1CCC(C(F)(F)F)C2` (centres unmarked) [Example I-19], the “efficacy (caterpillars killed)” value in [2] worked out at 100%. Further, the pest or weed control at 4 ppm in data set [3] came out at 100%. For the same compound, the “efficacy (wheat plants grown as in untreated, uninfected control)” value in data set [4] came out at 100%.

For the compound `CCS(=O)(=O)c1c(-c2nc3cc(C(F)(F)C(F)(F)F)cnc3n2C)nn2c1CCC(C)C2` (centres unmarked) [Example I-08], the “efficacy (caterpillars killed)” value in data set [2] worked out at 100%. Moreover, the pest or weed control at 4 ppm in [3] came to 100%.

Consider `CCS(=O)(=O)c1c(-c2nc3cc(C(F)(F)F)cnc3n2C)nn2c1CC(C)CC2` (centres unmarked) [Example I-10], for which the pest or weed control at 100 g/ha in data set [5] came out at 90%. In addition, the “efficacy (spider mites killed)” value in data set [6] was 90%. In addition, the pest or weed control at 4 ppm in data set [3] worked out at 100%.

Take `CCS(=O)(=O)c1c(-c2nc3cc(C(F)(F)F)cnc3n2C)nn2c1CCCC2` [Example I-03]: the “efficacy (beetle larvae killed)” value in [7] came out at 100%. The pest or weed control at 100 g/ha in data set [5] is 90%. Moreover, in [3], the pest or weed control at 4 ppm stood at 100%.

For `O=C(O)c1cc2cc(C(F)(F)F)ccn2n1` [5-(Trifluoromethyl)pyrazolo[1,5-a]pyridine-2-carboxylic add], the chromatographic logP in data set [1] was determined as 1.58.

As for `COC(=O)c1nn2ccc(C(F)(F)F)cc2c1C(=O)OC` [Dimethyl 5-(trifluoromethyl)pyrazolo[1,5-a]pyridine-2,3-dicarboxylate], in data set [1], the chromatographic logP was 2.57.

Turning to `CCS(=O)(=O)c1c(-c2nc3cc(C(F)(F)C(F)(F)F)ncc3n2C)nn2c1CCCC2` [Example I-12], the “efficacy (beetle larvae killed)” value in data set [7] is 100%. Further, the pest or weed control at 100 g/ha in data set [5] turned out to be 90%. Further, in [3], the pest or weed control at 4 ppm was 100%.

As for `CCS(=O)(=O)c1c(-c2nc3cc(SC(F)(F)F)cnc3n2C)nn2c1CCC(C)C2` (centres unmarked) [Example I-11], in data set [2], the “efficacy (caterpillars killed)” value is recorded as 83%. In addition, in [5], the pest or weed control at 100 g/ha turned out to be 90%. Further, the pest or weed control at 4 ppm in [3] came out at 100%. Also, the “efficacy (kill in %)” value in [8] is 100%.

For `CCS(=O)(=O)c1c(-c2nc3cc(C(F)(F)C(F)(F)F)ncc3n2C)nn2c1CCC(C(F)(F)F)C2` (centres unmarked) [Example I-17], the “efficacy (caterpillars killed)” value in [2] is 100%. The pest or weed control at 4 ppm in data set [3] came to 100%. Further, the “efficacy (wheat plants grown as in untreated, uninfected control)” value in data set [4] came out at 100%.

Consider `O=C(O)c1cc2n(n1)CCC(C(F)(F)F)C2` (centres unmarked) [5-(Trifluoromethyl)-4,5,6,7-tetrahydropyrazolo[1,5-a]pyridine-2-carboxylic add], for which, in data set [1], the chromatographic logP is 1.28.

With `CCS(=O)(=O)c1c(-c2nc3cc(C(F)(F)C(F)(F)F)ncc3n2C)nn2c1CC(C)CC2` (centres unmarked) [Example I-13], the “efficacy (caterpillars killed)” value in data set [2] is listed as 100%. Moreover, the pest or weed control at 100 g/ha in [5] came out at 90%. Further, in data set [6], the “efficacy (spider mites killed)” value is recorded as 100%. For the same compound, the “efficacy (no laying of fertile eggs)” value in data set [9] was 100%. Further, in data set [3], the pest or weed control at 4 ppm was 100%. In data set [8], the “efficacy (kill in %)” value was 100%.

For `CCS(=O)(=O)c1c(-c2nc3cc(C(F)(F)F)cnc3n2C)nn2c1CCC(C)C2` (centres unmarked) [Example I-07], in [3], the pest or weed control at 4 ppm was found to be 100%.

For `CCS(=O)(=O)c1c(-c2nc3c(n2C)CN(C)C(C(F)(F)F)=C3)nn2c1CCC(C(F)(F)F)C2` (centres unmarked) [Example I-18], the pest or weed control at 100 g/ha in data set [5] was 90%. In addition, the pest or weed control at 4 ppm in [3] was determined as 100%. In addition, in [4], the “efficacy (wheat plants grown as in untreated, uninfected control)” value is 100%.

In the case of `CCS(=O)(=O)c1c(-c2nc3cc(OC(F)(F)F)cnc3n2C)nn2c1CCC(C)C2` (centres unmarked) [Example I-09], in [5], the pest or weed control at 100 g/ha worked out at 90%. Moreover, the pest or weed control at 4 ppm in data set [3] worked out at 90%.

With `CCS(=O)(=O)c1c(-c2nc3cc(C(F)(F)F)ncc3n2C)nn2c1CC(C(F)(F)F)CC2` (centres unmarked) [Example I-04], the pest or weed control at 100 g/ha in data set [5] was determined as 100%. Also, in [6], the “efficacy (spider mites killed)” value came out at 100%. For the same compound, in [3], the pest or weed control at 4 ppm is 100%.

Consider `CCS(=O)(=O)c1c(-c2nc3cc(S(=O)(=O)C(F)(F)F)ccc3o2)nn2c1CCC(C)C2` (centres unmarked) [Example I-16], for which the pest or weed control at 4 ppm in data set [3] was found to be 90%.

On to `Cn1c(-c2nn3c(c2Br)CC(C(F)(F)F)CC3)nc2cc(C(F)(F)F)cnc21` (centres unmarked) [2-[3-Bromo-5-(trifluoromethyl)-4,5,6,7-tetrahydropyrazolo[1,5-a]pyridin-2-yl]-3-methyl-6-(trifluoromethyl)imidazo[4,5-b]pyridine], for which, in data set [1], the chromatographic logP turned out to be 3.99.

On to `CCS(=O)(=O)c1c(-c2nc3cc(C(F)(F)F)cnc3n2C)nn2c1CC(C(F)(F)F)CC2` (centres unmarked) [Example I-01, 2-[3-Ethylsulfonyl-5-(trifluoromethyl)-4,5,6,7-tetrahydropyrazolo[1,5-a]pyridin-2-yl]-3-methyl-6-(trifluoromethyl)imidazo[4,5-b]pyridine], for which the “efficacy (beetle larvae killed)” value in data set [7] turned out to be 100%. For the same compound, the “efficacy (caterpillars killed)” value in data set [2] turned out to be 100%. In data set [1], the chromatographic logP is 3.21. Further, the pest or weed control at 4 ppm in [3] was determined as 100%.

Consider `CCS(=O)(=O)c1c(-c2nc3cc(C(F)(F)F)ncc3n2C)nn2c1CCC(C)C2` (centres unmarked) [Example I-06], for which the pest or weed control at 100 g/ha in data set [5] was 90%.

As to `CCS(=O)(=O)c1c(-c2nc3cc([S+]([O-])C(F)(F)F)cnc3n2C)nn2c1CCC(C)C2` (centres unmarked) [Example I-14], the pest or weed control at 100 g/ha in data set [5] came out at 100%. Also, the pest or weed control at 4 ppm in data set [3] is 100%.

In the case of `CCS(=O)(=O)c1c(-c2nc3cc(S(=O)(=O)C(F)(F)F)cnc3n2C)nn2c1CCC(C)C2` (centres unmarked) [Example I-15], in [2], the “efficacy (caterpillars killed)” value is recorded as 100%. Further, the pest or weed control at 100 g/ha in data set [5] amounted to 90%. Besides, the pest or weed control at 4 ppm in data set [3] came out at 90%. Further, the “efficacy (kill in %)” value in [8] is 90%.
